Laboratory results taken from patent US8431563B2 (priority 2010, dated 2013).
Like-named read-outs stand apart in the source and are kept apart here.

How the values were obtained:
[1] = molecular target: T1, interaction between glucokinase (GK) and glucokinase regulatory protein (GKRP) (Homo sapiens, UniProt Q14397); experiment: biochemical; format: binding
T1 sequence (Q14397 1-625): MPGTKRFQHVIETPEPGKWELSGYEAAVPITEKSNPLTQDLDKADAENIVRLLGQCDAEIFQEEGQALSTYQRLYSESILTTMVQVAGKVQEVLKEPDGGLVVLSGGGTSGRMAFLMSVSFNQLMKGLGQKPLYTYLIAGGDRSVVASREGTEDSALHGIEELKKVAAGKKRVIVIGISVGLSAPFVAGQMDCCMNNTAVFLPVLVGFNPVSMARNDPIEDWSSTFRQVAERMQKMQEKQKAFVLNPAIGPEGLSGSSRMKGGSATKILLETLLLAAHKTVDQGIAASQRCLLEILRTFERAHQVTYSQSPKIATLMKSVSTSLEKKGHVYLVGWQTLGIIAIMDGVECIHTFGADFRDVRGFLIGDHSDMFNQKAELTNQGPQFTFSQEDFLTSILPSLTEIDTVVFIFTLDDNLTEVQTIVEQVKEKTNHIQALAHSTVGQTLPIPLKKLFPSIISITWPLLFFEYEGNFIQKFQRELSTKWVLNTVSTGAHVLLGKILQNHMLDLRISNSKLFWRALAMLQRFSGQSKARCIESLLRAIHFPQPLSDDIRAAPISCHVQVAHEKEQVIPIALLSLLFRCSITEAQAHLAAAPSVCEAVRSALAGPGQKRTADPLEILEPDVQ
Summary of the method: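 Avi-tagged human GKRP preincubated with compound for 20 min at room temperature, then 6 nM GK-fluorescein (concentration of added solution) introduced and incubated 2 h in the dark. Buffer: 20 mM Tris pH 7.5, 0.05% BSA, 1 mM DTT, 1 μM sorbitol-6-phosphate. Plate read on a fluorescence reader.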

[2] = molecular target: T2, GKRP (Glucokinase Regulatory Protein) with human His-hepatic GK (Homo sapiens, UniProt Q14397); experiment: biochemical
T2 sequence (Q14397 1-625): T1 sequence (Q14397 1-625)
Summary of the method: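 Human His-tagged hepatic GK (30 nM in the 5× working stock) in 50 mM Tris pH 7.5, 4 mM MgCl2, 6% DMSO with DTT, BSA and Brij-35. Enzyme was added after a 30 min step and reacted 30 min at room temperature. The reaction was stopped with acetonitrile and 13C-glucose-6-phosphate formed from 13C-glucose was quantified by LC MS/MS.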

[3] = avi-tagged GKRP, GK-fluorescein, AlphaScreen beads, read-out: GK-GKRP IC50 (Binding)
[4] = 13C-glucose-6-phosphate formation, 280 nM GKRP (10×), 30 nM GK (5×), read-out: GK-GKRP EC50 (LC MS/MS-2)
[5] = read-out: GK-GKRP IC50 (Binding)
[6] = read-out: GK-GKRP EC50 (LC MS/MS-2)

SMILES	IC50 [1, 3] [µM]	EC50 [2, 4] [µM]	other results
O=S(=O)(c1cccs1)N1CCN(c2ncc(C(O)(C(F)(F)F)C(F)(F)F)cn2)[C@@H](CN2C3COCC2C(O)C3)C1 (single isomer, unassigned) [Example 79 Peak #1]	0.049	0.05	–
O=S(=O)(c1cccs1)N1CCN(c2ncc(C(O)(C(F)(F)F)C(F)(F)F)cn2)[C@@H](CN2C3COCC2C(O)C3)C1 (single isomer, unassigned) [Example 79 Peak #2]	0.032	0.073	–
C[C@H]1COCCN1C[C@H]1CN(S(=O)(=O)c2cccs2)CCN1c1ccc(C(O)(CO)C(F)(F)F)cc1 (single isomer, unassigned) [Example 83 Peak #1]	0.032	0.068	–
C[C@H]1COCCN1C[C@H]1CN(S(=O)(=O)c2cccs2)CCN1c1ccc(C(O)(CO)C(F)(F)F)cc1 (single isomer, unassigned) [Example 83 Peak #2]	0.022	0.016	–
CC(O)(c1ccc(N2CCN(S(=O)(=O)c3cccs3)C[C@@H]2CN2[C@@H]3COC[C@H]2CC(=O)C3)cc1)C(F)(F)F (single isomer, unassigned) [Example 106 Peak#1]	0.052	0.088	–
CC(O)(c1ccc(N2CCN(S(=O)(=O)c3cccs3)C[C@@H]2CN2[C@@H]3COC[C@H]2CC(=O)C3)cc1)C(F)(F)F (single isomer, unassigned) [Example 106 Peak#2]	0.061	0.142	–
CC(O)(c1ccc(N2CCN(S(=O)(=O)c3cccs3)C[C@@H]2CN2CCOC[C@H]2CO)cc1)C(F)(F)F (single isomer, unassigned) [Example 110 Peak #1]	–	–	IC50 ([1]; GK-GKRP IC50 (Binding)): 0.101 µM; EC50 ([2]; GK-GKRP EC50 (LC MS/MS-2)): 0.156 µM
CC(O)(c1ccc(N2CCN(S(=O)(=O)c3cccs3)C[C@@H]2CN2CCOC[C@H]2CO)cc1)C(F)(F)F (single isomer, unassigned) [Example 110 Peak #2]	–	–	IC50 [1, 5]: 0.079 µM; EC50 [2, 6]: 0.132 µM
CC(O)(c1ccc(N2CCN(S(=O)(=O)c3cccs3)C[C@@H]2CN2CCOC[C@@H]2CO)cc1)C(F)(F)F (single isomer, unassigned) [Example 111 Peak #1]	0.064	0.099	–
CC(O)(c1ccc(N2CCN(S(=O)(=O)c3cccs3)C[C@@H]2CN2CCOC[C@@H]2CO)cc1)C(F)(F)F (single isomer, unassigned) [Example 111 Peak #2]	–	–	IC50 [1, 5]: 0.067 µM; EC50 [2, 6]: 0.113 µM
CC(O)(c1ccc(N2CCN(S(=O)(=O)c3cccs3)C[C@@H]2CN2CCOCC2CNS(C)(=O)=O)cc1)C(F)(F)F (single isomer, unassigned) [Example 112 Peak #1]	–	–	IC50 [1, 5]: 0.275 µM; EC50 [2, 6]: 0.986 µM
CC(O)(c1ccc(N2CCN(S(=O)(=O)c3cccs3)C[C@@H]2CN2CCOCC2CNS(C)(=O)=O)cc1)C(F)(F)F (single isomer, unassigned) [Example 112 Peak #2]	–	–	IC50 ([1]; GK-GKRP IC50 (Binding)): 0.21 µM; EC50 ([2]; GK-GKRP EC50 (LC MS/MS-2)): 0.332 µM
CC(O)(c1ccc(N2CCN(S(=O)(=O)c3cccs3)C[C@@H]2CN2CCOCC2c2ccc(F)cc2)cc1)C(F)(F)F (single isomer, unassigned) [Example 115 Peak #1]	0.589	0.308	–
Cn1cnc(COC[C@H]2CN(S(=O)(=O)c3cccs3)CCN2c2ccc(C(C)(O)C(F)(F)F)cc2)c1 (single isomer, unassigned) [Example 119 Peak #1]	0.972	0.235	–
Cn1cnc(COC[C@H]2CN(S(=O)(=O)c3cccs3)CCN2c2ccc(C(C)(O)C(F)(F)F)cc2)c1 (single isomer, unassigned) [Example 119 Peak #2]	0.979	0.206	–
C[C@H]1COCCN1C[C@H]1CN(S(=O)(=O)c2ccc(N)nc2)CCN1c1ccc([C@@](C)(O)C(F)(F)F)cc1 (single isomer, unassigned) [Example 125 Peak #1]	0.004	0.026	–

SMILES	IC50 [1, 3] [µM]	EC50 [2, 4] [µM]	other results
C[C@H]1COCCN1C[C@H]1CN(S(=O)(=O)c2ccc(N)nc2)CCN1c1ccc(C(C)(O)C(F)(F)F)cc1 (single isomer, unassigned) [Example 125 Peak #2]	0.007	0.018	–
CC1(C)C(=O)NCCN1C[C@H]1CN(S(=O)(=O)c2cccs2)CCN1c1ccc(C(C)(O)C(F)(F)F)cc1 (single isomer, unassigned) [Example 180 Peak #1]	0.011	0.04	–
CC1(C)C(=O)NCCN1C[C@H]1CN(S(=O)(=O)c2cccs2)CCN1c1ccc(C(C)(O)C(F)(F)F)cc1 (single isomer, unassigned) [Example 180 Peak #2]	0.008	0.042	–
CC(C)C1C(=O)NCCN1C[C@H]1CN(S(=O)(=O)c2cccs2)CCN1c1ccc(C(C)(O)C(F)(F)F)cc1 (single isomer, unassigned) [Example 181 Peak #1]	0.043	0.063	–
CC(C)C1C(=O)NCCN1C[C@H]1CN(S(=O)(=O)c2cccs2)CCN1c1ccc(C(C)(O)C(F)(F)F)cc1 (single isomer, unassigned) [Example 181 Peak #2]	0.001	0.014	–
CC(C)C1C(=O)NCCN1C[C@H]1CN(S(=O)(=O)c2ccc(N)s2)CCN1c1ncc(C(O)(C(F)(F)F)C(F)(F)F)cn1 (single isomer, unassigned) [Example 184 Peak #1]	0.001	0.012	–
CC(O)(c1ccc(N2CCN(S(=O)(=O)c3cccs3)C[C@@H]2CS(=O)(=O)c2ccccc2)cc1)C(F)(F)F (single isomer, unassigned) [Example 187 Peak#1]	0.041	0.049	–
CC(O)(c1ccc(N2CCN(S(=O)(=O)c3cccs3)C[C@@H]2CS(=O)(=O)c2ccccc2)cc1)C(F)(F)F (single isomer, unassigned) [Example 187 Peak#2]	0.059	0.052	–
CC(O)(c1ccc(N2CCN(S(=O)(=O)c3cccs3)C[C@@H]2C[S+]([O-])c2ccc(F)cc2)cc1)C(F)(F)F (single isomer, unassigned) [Example 191 Peak#2]	0.425	0.252	–
CC(O)(c1ccc(N2CCN(S(=O)(=O)c3cccs3)C[C@@H]2C[S+]([O-])c2ccc(F)cc2)cc1)C(F)(F)F (single isomer, unassigned) [Example 191 Peak#3]	0.259	0.262	–
CC(O)(c1ccc(N2CCN(S(=O)(=O)c3cccs3)C[C@@H]2CN2C3COCC2C(O)C3)cc1)C(F)(F)F (single isomer, unassigned; peak #1) [Example 77 Peak #1]	0.013	0.038	–
CC(O)(c1ccc(N2CCN(S(=O)(=O)c3cccs3)C[C@@H]2CN2C3COCC2C(O)C3)cc1)C(F)(F)F (single isomer, unassigned; peak #4) [Example 77 Peak #4]	0.042	0.065	–
CC(O)(c1ccc(N2CCN(S(=O)(=O)c3cccs3)C[C@@H]2CN2C3COCC2C(O)C3)cc1)C(F)(F)F (stereo partly drawn) [Example 77, 8-(((2S)-4-(2-thiophenylsulfonyl)-1-(4-(2,2,2-trifluoro-1-hydroxy-1-methylethyl)phenyl)-2-piperazinyl)methyl)-3-oxa-8-azabicyclo[3.2.1]octan-6-ol (endo)]	0.028	0.031	–
CC(O)(c1ccc(N2CCN(S(=O)(=O)c3cccs3)C[C@@H]2CN2C3COCC2C(O)C3)cc1)C(F)(F)F (stereo partly drawn) [Example 78, 8-(((2S)-4-(2-thiophenylsulfonyl)-1-(4-(2,2,2-trifluoro-1-hydroxy-1-methylethyl)phenyl)-2-piperazinyl)methyl)-3-oxa-8-azabicyclo[3.2.1]octan-6-ol]	0.042	0.05	–
O=S(=O)(c1cccs1)N1CCN(c2ncc(C(O)(C(F)(F)F)C(F)(F)F)cn2)[C@@H](CN2C3COCC2C(O)C3)C1 (stereo partly drawn) [Example 79, 8-(((2S)-4-(2-thiophenylsulfonyl)-1-(5-(2,2,2-trifluoro-1-hydroxy-1-(trifluoromethyl)ethyl)-2-pyrimidinyl)-2-piperazinyl)methyl)-3-oxa-8-azabicyclo[3.2.1]octan-6-ol]	0.039	0.058	–
O=S(=O)(c1nccs1)N1CCN(c2ncc(C(O)(C(F)(F)F)C(F)(F)F)cn2)[C@@H](CN2C3COCC2C(O)C3)C1 (stereo partly drawn) [Example 81, 8-(((2S)-4-(1,3-thiazol-2-ylsulfonyl)-1-(5-(2,2,2-trifluoro-1-hydroxy-1-(trifluoromethyl)ethyl)-2-pyrimidinyl)-2-piperazinyl)methyl)-3-oxa-8-azabicyclo[3.2.1]octan-6-ol]	0.177	0.287	–
